Results as given in US20250223301A1, “KINASE INHIBITORS, PREPARATION METHODS AND USES THEREOF” (InventisBio Co., Ltd., priority 2022, published 2025).

Experiments:
PBMC = assay: Human PBMC IL-2 assay; type: cell-based; settings: anti-CD3/CD28 stimulation overnight, IL-2 level
Description: PBMC (frozen) obtained from health donor were thawed in RPMI-1640 medium with 10% FBS and incubated for 4 h at 37° C. In a 96-well plate, −200,000 PBMC cells in 160 uL were added to each assay well. Ten microliter compound solution (10 uM to 0.6 nM, 8 points with 4-fold dilution) were added to cells in each well and incubated for 60 minutes at 37° C. Then 30 uL anti-CD3/CD28 antibody (Catalog #10991, Stemcell) were added to cells and incubated overnight at 37° C. After the incubation, 16 uL supernatants were transferred into a new 384-well white assay plate for cytokine analysis. IL-2 level was quantified using Human IL-2 kit (Catalog #62HIL02PEG, Cisbio) as described in the manufacturer manual.
(§1) X is log of compound concentration, Y is the IL-2 concentration, increasing as X increases.

Jurkat cells = assay: Jurkat IL-2 assay; type: cell-based; settings: Homo sapiens, anti-CD3/CD28 stimulation overnight, IL-2 level
Description: Jurkat cells (ATCC) were cultured in RPMI-1640 medium supplemented with 10% FBS. In a 96-well plate, −250,000 cells in 130 uL were added to each assay well. Ten microliter compound solution (5 uM to 2.3 nM, 8 points with 3-fold dilution) were added to cells in each well and incubated for 60 minutes at 37° C. Then 10 uL anti-CD3/CD28 antibody (Catalog #10991, Stemcell) were added and incubated overnight at 37° C. After the incubation, 16 uL supernatants were transferred into a new 384-well white assay plate for cytokine analysis. IL-2 was quantified using Human IL-2 kit (Catalog #62HIL02PEG, Cisbio) as described in the manufacturer manual.
as §1

| Compound | EC50 (PBMC) [nM] | EC50 (Jurkat cells) [nM] |
| --- | --- | --- |
| CC[C@@H]1CN2c3c(c(=O)n(C)c4ccc(C#N)nc34)OC[C@@H]2CN1[C@@H](CC)c1c(Cl)cccc1Cl (stereo in doubt) [Compound 240] | 109 | 242 |
| CC[C@@H]1CN2c3c(c(=O)n(C)c4ccc(C#N)nc34)OC[C@@H]2CN1[C@H](c1ccc(C(F)(F)F)cc1)C1CC1 [Compound 347] | 13 | 9 |
| CC[C@@H]1CN2c3c(c(=O)n(C)c4ccc(C#N)nc34)OC[C@@H]2CN1c1nc2cc(C)ccc2o1 [Compound 165] | 375 |  |
| CC[C@@H]1CN2c3c(c(=O)n(C)c4ccc(C#N)nc34)OC[C@@H]2CN1[C@@H](CC)c1ccc(C(F)(F)F)cn1 (stereo in doubt) [Compound 186] | 23 | 13 |
| CC[C@@H]1CN2c3c(c(=O)n(C)c4ccc(C#N)nc34)OC[C@@H]2CN1[C@H](CC)c1ccc(C(F)(F)F)c(F)c1 (stereo in doubt) [Compound 320] | 56 | 42 |
| CC[C@@H]1CN2c3c(c(=O)n(C)c4ccc(C#N)nc34)OC[C@@H]2CN1[C@H](CC)c1ccc(C)c(F)c1 (stereo in doubt) [Compound 338] | 153 | 86 |
| CC[C@@H]1CN2c3c(c(=O)n(C)c4ccc(C#N)nc34)OC[C@@H]2CN1Cc1ccc(Cl)c(Cl)c1 [Compound 266] | 111 | 163 |
| CC[C@@H]1CN2c3c(c(=O)n(C)c4ccc(C#N)nc34)OC[C@@H]2CN1[C@@H](CC)c1ccc(C(F)F)cc1 (stereo in doubt) [Compound 291] | 11 | 10 |
| CC[C@H]1CN([C@H](CC)c2ccc(F)cc2F)[C@H](CC)CN1c1nc2nncn2c2ccc(C#N)nc12 (stereo in doubt) [Compound 195] | 2200 | 1110 |
| CC[C@H]1CN([C@@H](CC)c2ccc(C3CC3)nc2)[C@H](CC)CN1c1nc2nncn2c2ccc(C#N)nc12 (stereo in doubt) [Compound 188] | 577 |  |
| CC[C@@H]1CN2c3c(c(=O)n(C)c4ccc(C#N)nc34)OC[C@@H]2CN1[C@@H](CC)c1ccc(C(F)(F)F)c(F)c1 (stereo in doubt) [Compound 319] | 285 | 519 |
| CC[C@@H]1CN2c3c(c(=O)n(C)c4ccc(C#N)nc34)OC[C@@H]2CN1[C@@H](CC)c1ccc(OC)cc1F (stereo in doubt) [Compound 232] | 19 | 47 |
| CC[C@H]1CN([C@H](c2ccc(SC(F)(F)F)cc2)C2CC2)[C@H](CC)CN1c1nc2nncn2c2ccc(C#N)nc12 (stereo in doubt) [Compound 168] | 32 | 42 |
| CC[C@H]1CN([C@@H](CC)c2nc(C(F)(F)F)no2)[C@H](CC)CN1c1nc2nncn2c2ccc(C#N)nc12 (stereo in doubt) [Compound 135] | 69 | 70 |
| C[C@@H]1CN2c3c(c(=O)n(C)c4ccc(C#N)nc34)OC[C@@H]2CN1[C@H](C)c1ccc(F)c(Cl)c1 (stereo in doubt) [Compound 259] | 1880 | 624 |
| CC[C@@H]1CN2c3c(c(=O)n(C)c4ccc(C#N)nc34)N(C)C(=O)[C@@H]2CN1[C@H](CC)c1ccc(C(F)(F)F)cc1 [Compound 199] | 1580 | 873 |
| CC[C@@H]1CN2c3c(c(=O)n(C)c4ccc(C#N)nc34)OC[C@@H]2CN1[C@H](CC)c1ccc(Cl)cc1 (stereo in doubt) [Compound 243] | 212 | 473 |
| CC[C@@H]1CN2c3c(c(=O)n(C)c4ccc(C#N)nc34)OC[C@@H]2CN1[C@H](CC)c1ccc(C(F)(F)F)cn1 (stereo in doubt) [Compound 187] | 322 |  |
| CC[C@@H]1CN2c3c(c(=O)n(C)c4ccc(C#N)nc34)OC[C@@H]2CN1[C@@H](CC)c1ccc(C)c(F)c1 (stereo in doubt) [Compound 339] | 13 | 7 |

| Compound | EC50 (PBMC) [nM] | EC50 (Jurkat cells) [nM] |
| --- | --- | --- |
| CC[C@@H](c1ccc(Cl)c(C(F)(F)F)c1)N1C[C@H]2COc3c(c4nc(C#N)ccc4n(C)c3=O)N2C[C@H]1C (stereo in doubt) [Compound 318] | 349 | 359 |
| CC[C@@H]1CN2c3c(c(=O)n(C)c4ccc(C#N)nc34)OC[C@@H]2CN1[C@@H](c1ccc(C(F)(F)F)cc1)C1CC1 [Compound 346] | 138 | 91 |
| Cc1ccc2oc(C3(C)CCN(c4c(C#N)c(=O)n(C)c5ccc(C#N)nc45)CC3)nc2c1 [Compound 7] | 372 |  |
| CC[C@@H]1CN2c3c(c(=O)n(C)c4ccc(C#N)nc34)OC[C@@H]2CN1[C@@H](CC)c1ccc(Cl)cc1F (stereo in doubt) [Compound 295] | 10 | 8 |
| CC[C@@H]1CN2c3c(c(=O)n(C)c4ccc(C#N)nc34)OC[C@@H]2CN1[C@@H](CC)c1ccc(Cl)c(C(F)(F)F)c1 (stereo in doubt) [Compound 327] | 103 | 64 |
| CC[C@H](c1ccc(F)c(Cl)c1)N1C[C@H]2COc3c(c4nc(C#N)ccc4n(C)c3=O)N2C[C@H]1C (stereo in doubt) [Compound 237] | 1330 |  |
| CC[C@@H]1CN2c3c(c(=O)n(C)c4ccc(C#N)nc34)OC[C@@H]2CN1[C@H](CC)c1ccc(F)c(F)c1 (stereo in doubt) [Compound 182] | 1880 |  |
| CC[C@@H]1CN2c3c(c(=O)n(C)c4ccc(C#N)nc34)N(C)C[C@@H]2CN1[C@H](CC)c1ccc(C(F)(F)F)cc1 [Compound 220] | 3840 |  |
| CC[C@@H]1CN2c3c(c(=O)n(C)c4ccc(C#N)nc34)OC[C@@H]2CN1[C@H](CC)c1c(F)ccc(F)c1F (stereo in doubt) [Compound 171] | 1250 |  |
| C[C@H]1CC2(CCN1c1nc(=O)n(C)c3ccc(C#N)nc13)CC(c1ccc(OC(F)(F)F)cc1)=NO2 (stereo partly drawn) [Compound 50] |  | 435 |
| CC[C@H]1CN([C@H](CC)c2ccc(C3CC3)nc2)[C@H](CC)CN1c1nc2nncn2c2ccc(C#N)nc12 (stereo in doubt) [Compound 189] | 276 |  |
| CCC[C@@H]1CN2c3c(c(=O)n(C)c4ccc(C#N)nc34)OC[C@@H]2CN1[C@@H](C)c1ccc(OCC2CC2)cc1F (stereo in doubt) [Compound 163] | 340 |  |
| CC[C@H]1CN2[C@@H](COC[C@@H]2c2ccc(C(F)(F)F)cc2)CN1c1nc2nncn2c2ccc(C#N)nc12 [Compound 192] | 3050 |  |
| CCC[C@@H]1CN2c3c(c(=O)n(C)c4ccc(C#N)nc34)OC[C@@H]2CN1[C@H](C)c1ccc(OCC2CC2)cc1F (stereo in doubt) [Compound 164] | 233 |  |
| CC[C@@H]1CN2c3c(c(=O)n(C4CCC4)c4ccc(C#N)nc34)OC[C@@H]2CN1[C@@H](CC)c1ccc(C(F)(F)F)cc1 (stereo in doubt) [Compound 263] |  | 582 |
| CC[C@@H]1CN2c3c(c(=O)n(C)c4ccc(C#N)nc34)OC[C@@H]2CN1[C@H](CC)c1ccc(S(C)(=O)=O)cc1 (stereo in doubt) [Compound 185] | 7230 |  |
| CC[C@H](c1ccc(C(F)(F)F)cc1)N1C[C@H]2COc3c(c4nc(C#N)ccc4n(C)c3=O)N2C[C@H]1C (stereo in doubt) [Compound 178] | 299 |  |
| C[C@@H]1CN2c3c(c(=O)n(C)c4ccc(C#N)nc34)OC[C@@H]2CN1[C@@H](C)c1ccc(Cl)cc1Cl (stereo in doubt) [Compound 268] | 890 |  |
